Among the test systems are SN12C renal; COLO 205 colon; RXF 393 renal; LOX IMVI melanoma; SK-MEL-2 melanoma; HCT-116 colon; DLD-1 colon; SNB-78 CNS; KM20L2 colon.
Common to all, as to assay: NCI tumour cell line growth inhibition, 48 h

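These data come from cells grown in 96-well plates and exposed to compound for 48 hours at five concentrations. GI50: concentration for 50% inhibition of growth. TGI marks complete inhibition of growth.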

For the compound `CS(=O)(=O)CCNCc1nc(-c2ccc3ncnc(Nc4ccc(F)c(Cl)c4)c3c2)cs1`, the GI50 in the assay on SN12C renal is 15.6 µM; with COLO 205 colon it was over 20.5 µM; in the assay on RXF 393 renal it was 9.75 µM; in the assay on LOX IMVI melanoma, 14.1 µM; in the assay with SK-MEL-2 melanoma, over 17.6 µM; in the assay on HCT-116 colon it was over 23.9 µM. In addition, the TGI in the assay with SN12C renal, in the assay on COLO 205 colon, with RXF 393 renal, in the assay on LOX IMVI melanoma, in the assay with SK-MEL-2 melanoma and with HCT-116 colon was over 25 µM in each case.
In the case of `O=C(CN1CCN(c2ncccn2)CC1)Nc1ccc(Cl)cc1C(=O)c1ccccc1Cl`, the GI50 in the assay with SN12C renal is over 100 µM; with COLO 205 colon, over 100 µM; in the assay with RXF 393 renal, over 100 µM; in the assay with LOX IMVI melanoma, over 100 µM; with SK-MEL-2 melanoma it was over 100 µM; in the assay on HCT-116 colon, 78.7 µM. In addition, the TGI in the assay on SN12C renal, in the assay with COLO 205 colon, with RXF 393 renal, in the assay with LOX IMVI melanoma, in the assay on SK-MEL-2 melanoma and in the assay with HCT-116 colon was over 100 µM in each case.
On to `O=P(O)(CCP(=O)(O)c1ccccc1)c1ccccc1`, for which the TGI in the assay on SN12C renal, in the assay with COLO 205 colon, in the assay on RXF 393 renal, with LOX IMVI melanoma, with SK-MEL-2 melanoma and with HCT-116 colon was over 100 µM throughout.
Take `CCOc1cc2ncc(C#N)c(Nc3ccc(OCc4cccc(F)c4)c(Cl)c3)c2cc1NC(=O)CC1CCSS1` (centres undefined): the GI50 was over 6.3 µM in the assay on SN12C renal; 2.39 µM with COLO 205 colon; 2.35 µM with RXF 393 renal; 0.447 µM in the assay with LOX IMVI melanoma; 0.99 µM with SK-MEL-2 melanoma; 0.431 µM in the assay with HCT-116 colon. Besides, the TGI was over 25 µM in the assay with SN12C renal; over 25 µM in the assay with COLO 205 colon; 15.8 µM in the assay with RXF 393 renal; 1.01 µM in the assay with LOX IMVI melanoma; over 7.13 µM in the assay on SK-MEL-2 melanoma; 1.07 µM with HCT-116 colon.
Take `CC(=O)n1c(COS(C)(=O)=O)nc2ccccc21`: the TGI in the assay on SN12C renal, with COLO 205 colon, with RXF 393 renal, in the assay on LOX IMVI melanoma, with SK-MEL-2 melanoma and in the assay on HCT-116 colon was over 100 µM in each case.
With `O=[N+]([O-])C1C(c2ccccc2)C12c1ccccc1-c1ccccc12` (centres undefined), the GI50 in the assay on SN12C renal is 1.67 µM; in the assay with COLO 205 colon, 1.85 µM; in the assay with RXF 393 renal it was 0.845 µM; with LOX IMVI melanoma, 0.416 µM; in the assay on SK-MEL-2 melanoma it was 4.4 µM; in the assay with HCT-116 colon, 0.371 µM. Besides, the TGI with SN12C renal worked out at 26 µM; in the assay with COLO 205 colon it was 10.9 µM; in the assay on RXF 393 renal, 6.24 µM; in the assay with LOX IMVI melanoma, 2.47 µM; in the assay on SK-MEL-2 melanoma, 31.4 µM; with HCT-116 colon it was 11.6 µM.
For the compound `Cc1ccc(OCC(=O)N2N=C(c3ccccc3)CC2(O)c2ccccc2)cc1` (centres undefined), the TGI in the assay on DLD-1 colon was over 100 µM; with SN12C renal it was 40.3 µM; in the assay with COLO 205 colon it was over 100 µM; in the assay on SNB-78 CNS it was 51.5 µM; with LOX IMVI melanoma, over 100 µM; in the assay on SK-MEL-2 melanoma, over 100 µM. The TGI is over 100 µM with HCT-116 colon and 41.3 µM in the assay on KM20L2 colon.
For the compound `CNC(=O)c1cc(OC2CCC(NC(=O)Nc3ccc(Cl)c(C(F)(F)F)c3)CC2)ccn1` (centres undefined), the GI50 in the assay with SN12C renal is 6.2 µM; in the assay on COLO 205 colon, 8.81 µM; in the assay on RXF 393 renal it was 10.5 µM; in the assay on LOX IMVI melanoma, 4.96 µM; in the assay with SK-MEL-2 melanoma it was 15.8 µM; in the assay on HCT-116 colon, 4.35 µM. The TGI in the assay on SN12C renal was found to be 22.1 µM; with COLO 205 colon, 22.3 µM; with RXF 393 renal, 24.5 µM; in the assay on LOX IMVI melanoma, 22.2 µM; in the assay with SK-MEL-2 melanoma, 38.3 µM; in the assay on HCT-116 colon it was 16.6 µM.
For `CC(=O)Nc1ccc2c(c1)c(C1=C(c3cn(C)c4ccccc34)C(=O)NC1=O)cn2C`, the GI50 in the assay with SN12C renal was 1.66 µM; in the assay with COLO 205 colon, 1.3 µM; in the assay on RXF 393 renal it was 0.608 µM; in the assay on LOX IMVI melanoma, 1.63 µM; in the assay on SK-MEL-2 melanoma it was 0.94 µM; in the assay on HCT-116 colon it was 1.09 µM. In addition, the TGI was over 25 µM in the assay on SN12C renal; over 25 µM with COLO 205 colon; 2.68 µM in the assay on RXF 393 renal; over 25 µM in the assay on LOX IMVI melanoma; 5.74 µM with SK-MEL-2 melanoma; over 25 µM in the assay with HCT-116 colon.
For the compound `C=C1CC2(OC1=O)C(=O)N(CCCCCCCN1C(=O)C3(CC(=C)C(=O)O3)c3ccccc31)c1ccccc12` (centres undefined), the GI50 is 1.08 µM in the assay with SN12C renal; 1.38 µM in the assay with COLO 205 colon; 0.86 µM in the assay with RXF 393 renal; 0.763 µM in the assay with LOX IMVI melanoma; 7.51 µM in the assay with SK-MEL-2 melanoma; 1.49 µM in the assay on HCT-116 colon. Further, the TGI in the assay on SN12C renal turned out to be 2.72 µM; in the assay with COLO 205 colon it was 5.58 µM; with RXF 393 renal, 2.06 µM; with LOX IMVI melanoma it was 1.54 µM; in the assay on SK-MEL-2 melanoma, 17.2 µM; with HCT-116 colon, 5.07 µM.
Regarding `COc1cccc(C2CC(C)(N3CCCC3)Oc3cc4c(cc32)OCO4)c1O` (centres undefined), the TGI in the assay on SN12C renal is 84.9 µM; with COLO 205 colon, 39.7 µM; in the assay with RXF 393 renal, over 80.6 µM; in the assay with LOX IMVI melanoma it was over 94.5 µM; in the assay with SK-MEL-2 melanoma, 55.8 µM; with HCT-116 colon it was over 63.6 µM.
For the compound `Cc1cc(-c2ncc(CC(=O)Nc3ccc(-c4cnccn4)cn3)cc2C)ccn1`, the GI50 in the assay with SN12C renal is 91.7 µM; in the assay on COLO 205 colon, 42.8 µM; in the assay with RXF 393 renal, 42.2 µM; in the assay on LOX IMVI melanoma, 68.7 µM; in the assay on SK-MEL-2 melanoma, 27.8 µM; in the assay on HCT-116 colon it was 49 µM. For the same compound, the TGI in the assay on SN12C renal, in the assay on COLO 205 colon, in the assay on RXF 393 renal, in the assay with LOX IMVI melanoma, in the assay with SK-MEL-2 melanoma and in the assay on HCT-116 colon was over 100 µM throughout.
In the case of `COc1nc(N(C)O)nc(N(C)O)n1`, the GI50 was 2.25 µM in the assay on SN12C renal; 1.24 µM with COLO 205 colon; 1.95 µM in the assay with RXF 393 renal; 0.895 µM with LOX IMVI melanoma; 6.1 µM with SK-MEL-2 melanoma; 0.402 µM in the assay with HCT-116 colon. Moreover, the TGI is over 100 µM with SN12C renal; over 100 µM in the assay with COLO 205 colon; over 100 µM in the assay on RXF 393 renal; over 100 µM with LOX IMVI melanoma; over 100 µM with SK-MEL-2 melanoma; 3.88 µM with HCT-116 colon.
